Results reported in patent US20240287076A1, “COMPOUNDS FOR TARGETING DEGRADATION OF BRUTON'S TYROSINE KINASE” (BIOGEN MA INC., priority 2021, published 2024).

Molecular target: T1, BTK (Homo sapiens, UniProt Q06187)
T1 construct: The GM01501.3 cell line endogenously expresses BTK with a HiBiT fusion tag via CRISPR knock-in at its C-terminal region; endogenous in cells; host or cells: GM01501.3 (GM01501 cells engineered by CRISPR knock-in of HiBiT at the BTK locus)
Assay: BTK degradation assay using the HiBiT Method (Nano-Glo HiBiT Lytic Assay, GM01501.3 cells)
Assay type: cell-based
Details: HiBiT Degradation on GM01501.3 BTK @ 6 hours
In short: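 CRISPR knock-in GM01501.3 cells expressing endogenous BTK with C-terminal HiBiT tag, treated 6 h at 37 °C with compounds, 11-point half-log titration from 10 μM top, duplicates. Remaining BTK quantified by Nano-Glo HiBiT lytic luminescence versus DMSO controls; DC50 reported.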

T1 sequence (Q06187 whole entry, the tested form may be a part): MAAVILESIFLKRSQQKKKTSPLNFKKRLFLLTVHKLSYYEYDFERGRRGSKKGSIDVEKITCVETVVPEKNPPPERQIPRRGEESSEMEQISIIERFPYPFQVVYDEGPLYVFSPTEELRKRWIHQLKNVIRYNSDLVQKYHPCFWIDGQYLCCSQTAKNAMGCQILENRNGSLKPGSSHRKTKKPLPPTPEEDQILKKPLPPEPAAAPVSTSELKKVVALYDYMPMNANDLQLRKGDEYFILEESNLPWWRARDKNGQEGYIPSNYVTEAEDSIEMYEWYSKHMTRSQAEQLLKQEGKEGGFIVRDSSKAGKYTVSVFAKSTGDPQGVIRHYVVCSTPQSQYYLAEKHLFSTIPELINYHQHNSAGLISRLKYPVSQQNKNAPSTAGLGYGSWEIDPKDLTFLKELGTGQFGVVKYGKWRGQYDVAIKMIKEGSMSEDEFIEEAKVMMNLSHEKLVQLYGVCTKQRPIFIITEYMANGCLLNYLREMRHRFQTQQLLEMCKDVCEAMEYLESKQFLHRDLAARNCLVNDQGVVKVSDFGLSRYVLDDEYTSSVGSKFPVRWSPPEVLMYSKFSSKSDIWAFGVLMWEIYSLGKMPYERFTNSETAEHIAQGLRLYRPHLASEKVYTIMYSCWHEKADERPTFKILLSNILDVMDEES

| Compound | DC50 [nM] |
| --- | --- |
| Cc1cc(-c2ncnn3cc(-c4nccc(CN5CCC(c6ccc(C7CCC(=O)NC7=O)cc6)CC5)c4F)cc23)ccc1CNC(=O)c1noc(C(C)(C)C)n1 (stereo not drawn) [Example 217, 5-(tert-butyl)-N-(4-(6-(4-((4-(4-(2,6-dioxopiperidin-3-yl)phenyl)piperidin-1-yl)methyl)-3-fluoropyridin-2-yl)pyrrolo[2,1-f][1,2,4]triazin-4-yl)-2-methylbenzyl)-1,2,4-oxadiazole-3-carboxamide] | < 100 |
| Cc1cc(-c2ncnn3cc(-c4ccc5sc(CN6CCC(c7ccc(C8CCC(=O)NC8=O)cc7)CC6)cc5n4)cc23)ccc1CNC(=O)c1noc(C(C)(C)C)n1 (stereo not drawn) [Example 218, 5-(tert-butyl)-N-(4-(6-(2-((4-(4-(2,6-dioxopiperidin-3-yl)phenyl)piperidin-1-yl)methyl)thieno[3,2-b]pyridin-5-yl)pyrrolo[2,1-f] [1,2,4]triazin-4-yl)-2-methylbenzyl)-1,2,4-oxadiazole-3-carboxamide] | 100 to 500 |
| Cc1cc(-c2ncnn3cc(-c4nc(CN5CCC(c6ccc(C7CCC(=O)NC7=O)cc6)CC5)co4)cc23)ccc1CNC(=O)c1noc(C(C)(C)C)n1 (stereo not drawn) [Example 219, 5-(tert-butyl)-N-(4-(6-(4-((4-(4-(2,6-dioxopiperidin-3-yl)phenyl)piperidin-1-yl)methyl)oxazol-2-yl)pyrrolo[2,1-f][1,2,4]triazin-4-yl)-2-methylbenzyl)-1,2,4-oxadiazole-3-carboxamide] | < 100 |
| Cc1cc(-c2ncnn3cc(-c4ccc(-c5n[nH]cc5CN5CCC(c6ccc(C7CCC(=O)NC7=O)cc6)CC5)s4)cc23)ccc1CNC(=O)c1noc(C(C)(C)C)n1 (stereo not drawn) [Example 220, 5-(tert-butyl)-N-(4-(6-(5-(4-((4-(4-(2,6-dioxopiperidin-3-yl)phenyl)piperidin-1-yl)methyl)-1H-pyrazol-3-yl)thiophen-2-yl)pyrrolo [2,1-f][1,2,4]triazin-4-yl)-2-methylbenzyl)-1,2,4-oxadiazole-3-carboxamide] | < 100 |
| CC(C)(C)OC1CN(C(=O)NCc2ccc(-c3ncnn4cc(-c5ccc(CN6CCC(c7ccc(NC8CCC(=O)NC8=O)cc7)CC6)c(F)c5)cc34)cc2F)C1 (stereo not drawn) [Example 221, 3-(tert-butoxy)-N-(4-(6-(4-((4-(4-((2,6-dioxopiperidin-3-yl)amino)phenyl)piperidin-1-yl)methyl)-3-fluorophenyl)pyrrolo[2,1-f][1,2,4]triazin-4-yl)-2-fluorobenzyl)azetidine-1-carboxamide] | < 100 |
| CC(C)(C)c1nc(C(=O)NCc2ccc(-c3ncnn4cc(-c5ccc(CN6CCC(c7ccc(NC8CCC(=O)NC8=O)cn7)CC6)c(F)c5)cc34)cc2F)no1 (stereo not drawn) [Example 222, 5-(tert-butyl)-N-(4-(6-(4-((4-(5-((2,6-dioxopiperidin-3-yl)amino)pyridin-2-yl)piperidin-1-yl)methyl)-3-fluorophenyl)pyrrolo[2,1-f][1,2,4]triazin-4-yl)-2-fluorobenzyl)-1,2,4-oxadiazole-3-carboxamide] | < 100 |
| Cc1cc(-c2ccnc3cn(-c4ccc(CN5CCC(c6ccc(NC7CCC(=O)NC7=O)cc6)CC5)cc4)nc23)ccc1CNC(=O)c1noc(C(C)(C)C)n1 (stereo not drawn) [Example 223, 5-tert-butyl-N-[[4-[2-[4-[[4-[4-[(2,6-dioxo-3-piperidyl)amino]phenyl]-1-piperidyl]methyl]phenyl]pyrazolo[4,3-b]pyridin-7-yl]-2-methyl-phenyl]methyl]-1,2,4-oxadiazole-3-carboxamide] | < 100 |
| Cc1cc(-c2ccnc3cn(CCCCN4CCC(c5ccc(NC6CCC(=O)NC6=O)cc5)CC4)nc23)ccc1CNC(=O)c1noc(C(C)(C)C)n1 (stereo not drawn) [Example 224, 5-tert-butyl-N-[[4-[2-[4-[4-[4-[(2,6-dioxo-3-piperidyl)amino]phenyl]-1-piperidyl]butyl]pyrazolo[4,3-b]pyridin-7-yl]-2-methyl-phenyl]methyl]-1,2,4-oxadiazole-3-carboxamide] | < 100 |
| CC(C)(C)c1nc(C(=O)NCc2ccc(-c3ncnn4cc(C#CC(F)(F)CN5CCC(c6ccc(C7CCC(=O)NC7=O)cc6)CC5)cc34)cc2F)no1 (stereo not drawn) [Example 225, 5-tert-butyl-N-[[4-[6-[4-[4-[4-(2,6-dioxo-3-piperidyl)phenyl]-1-piperidyl]-3,3-difluoro-but-1-ynyl]pyrrolo[2,1-f][1,2,4]triazin-4-yl]-2-fluoro-phenyl]methyl]-1,2,4-oxadiazole-3-carboxamide] | > 1000 |
| CC(C)(C)c1nc(C(=O)NCc2ccc(-c3ncnn4cc(-c5ccc(CN6CCCC(Cc7ccc(OC8CCC(=O)NC8=O)cc7)C6)cn5)cc34)cc2F)no1 (stereo not drawn) [Example 227, 5-(tert-butyl)-N-(4-(6-(5-((3-(4-((2,6-dioxopiperidin-3-yl)oxy)benzyl)piperidin-1-yl)methyl)pyridin-2-yl)pyrrolo[2,1-f][1,2,4]triazin-4-yl)-2-fluorobenzyl)-1,2,4-oxadiazole-3-carboxamide] | 100 to 500 |
| CN(CCOc1ccc(OC2CCC(=O)NC2=O)cc1)Cc1ccc(-c2cc3c(-c4ccc(CNC(=O)c5noc(C(C)(C)C)n5)c(F)c4)ncnn3c2)nc1 (stereo not drawn) [Example 229, 5-(tert-butyl)-N-(4-(6-(5-(((2-(4-((2,6-dioxopiperidin-3-yl)oxy)phenoxy)ethyl)(methyl)amino)methyl)pyridin-2-yl)pyrrolo[2,1-f][1,2,4]triazin-4-yl)-2-fluorobenzyl)-1,2,4-oxadiazole-3-carboxamide] | < 100 |
| CC(C)(C)c1nc(C(=O)NCc2ccc(-c3ncnn4cc(-c5ccc(CN6CCCCC6Cc6ccc(OC7CCC(=O)NC7=O)cc6)cn5)cc34)cc2F)no1 (stereo not drawn) [Example 233, 5-(tert-butyl)-N-(4-(6-(5-((2-(4-((2,6-dioxopiperidin-3-yl)oxy)benzyl)piperidin-1-yl)methyl)pyridin-2-yl)pyrrolo [2,1-f][1,2,4]triazin-4-yl)-2-fluorobenzyl)-1,2,4-oxadiazole-3-carboxamide] | < 100 |

More lines, now with the values ahead:

| DC50 [nM] | Compound |
| --- | --- |
| < 100 | CC(C)(C)c1nc(C(=O)NCc2ccc(-c3ncnn4cc(-c5ccc(CN6CCc7ccc(OC8CCC(=O)NC8=O)cc7C6)cn5)cc34)cc2F)no1 (stereo not drawn) [Example 226] |
| 100 to 500 | CC(C)(C)c1nc(C(=O)NCc2ccc(-c3ncnn4cc(-c5ccc(CN6CCOc7cc(OC8CCC(=O)NC8=O)ccc7C6)cn5)cc34)cc2F)no1 (stereo not drawn) [Example 228] |
| < 100 | CC(C)(C)c1nc(C(=O)NCc2ccc(-c3ncnn4cc(-c5ccc(CN6CCc7ccc(OC8CCC(=O)NC8=O)cc7CC6)cn5)cc34)cc2F)no1 (stereo not drawn) [Example 230, 5-(tert-butyl)-N-(4-(6-(5-((7-((2,6-dioxopiperidin-3-yl)oxy)-1,2,4,5-tetrahydro-3H-benzo[d]azepin-3-yl)methyl)pyridin-2-yl)pyrrolo [2,1-f][1,2,4]triazin-4-yl)-2-fluorobenzyl)-1,2,4-oxadiazole-3-carboxamide] |
| 100 to 500 | CC(C)(C)c1nc(C(=O)NCc2ccc(-c3ncnn4cc(-c5ccc(CN6CCC(Cc7cccc(OC8CCC(=O)NC8=O)c7)CC6)cn5)cc34)cc2F)no1 (stereo not drawn) [Example 231, 5-(tert-butyl)-N-(4-(6-(5-((4-(3-((2,6-dioxopiperidin-3-yl)oxy)benzyl)piperidin-1-yl)methyl)pyridin-2-yl)pyrrolo[2,1-f][1,2,4]triazin-4-yl)-2-fluorobenzyl)-1,2,4-oxadiazole-3-carboxamide] |
| 100 to 500 | CC1c2cc(OC3CCC(=O)NC3=O)ccc2CCN1Cc1ccc(-c2cc3c(-c4ccc(CNC(=O)c5noc(C(C)(C)C)n5)c(F)c4)ncnn3c2)nc1 (stereo not drawn) [Example 232, 5-(tert-butyl)-N-(4-(6-(5-((7-((2,6-dioxopiperidin-3-yl)oxy)-1-methyl-3,4-dihydroisoquinolin-2(1H)-yl)methyl)pyridin-2-yl)pyrrolo[2,1-f][1,2,4]triazin-4-yl)-2-fluorobenzyl)-1,2,4-oxadiazole-3-carboxamide] |
| < 100 | CC(C)(C)c1nc(C(=O)NCc2ccc(-c3ncnn4cc(-c5ccc(CN6CCN(Cc7ccc(OC8CCC(=O)NC8=O)cc7)CC6)cn5)cc34)cc2F)no1 (stereo not drawn) [Example 234, 5-(tert-butyl)-N-(4-(6-(5-((4-(4-((2,6-dioxopiperidin-3-yl)oxy)benzyl)piperazin-1-yl)methyl)pyridin-2-yl)pyrrolo[2,1-f][1,2,4]triazin-4-yl)-2-fluorobenzyl)-1,2,4-oxadiazole-3-carboxamide] |
| < 100 | CC(C)(C)c1nc(C(=O)NCc2ccc(-c3ncnn4cc(-c5ccc(CN6CCN(Cc7cccc(OC8CCC(=O)NC8=O)c7)CC6)cn5)cc34)cc2F)no1 (stereo not drawn) [Example 235, 5-(tert-butyl)-N-(4-(6-(5-((4-(3-((2,6-dioxopiperidin-3-yl)oxy)benzyl)piperazin-1-yl)methyl)pyridin-2-yl)pyrrolo[2,1-f][1,2,4]triazin-4-yl)-2-fluorobenzyl)-1,2,4-oxadiazole-3-carboxamide] |
| < 100 | CC(C)(C)c1nc(C(=O)NCc2ccc(-c3ncnn4cc(-c5ccc(CN6CCCC(c7ccc(OC8CCC(=O)NC8=O)cc7)C6)cn5)cc34)cc2F)no1 (stereo not drawn) [Example 236, 5-(tert-butyl)-N-(4-(6-(5-((3-(4-((2,6-dioxopiperidin-3-yl)oxy)phenyl)piperidin-1-yl)methyl)pyridin-2-yl)pyrrolo[2,1-f][1,2,4]triazin-4-yl)-2-fluorobenzyl)-1,2,4-oxadiazole-3-carboxamide] |
| < 100 | CC(C)(C)c1nc(C(=O)NCc2ccc(-c3ncnn4cc(-c5ccc(CN6CCC(Cc7ccc(OC8CCC(=O)NC8=O)cc7)C6)cn5)cc34)cc2F)no1 (stereo not drawn) [Example 237, 5-(tert-butyl)-N-(4-(6-(5-((3-(4-((2,6-dioxopiperidin-3-yl)oxy)benzyl)pyrrolidin-1-yl)methyl)pyridin-2-yl)pyrrolo[2,1-f][1,2,4]triazin-4-yl)-2-fluorobenzyl)-1,2,4-oxadiazole-3-carboxamide] |
